Experimental data reported in the supplement of paper PMC10307832.

compound: C1CSC2=C(C(=O)N1)SC3=C2C=C(C=C3)O [kb NB 142-70] + COc1cc2c(Oc3ccc(NC(=O)C4(C(=O)Nc5ccc(F)cc5)CC4)cc3F)ccnc2cc1OCCCN1CCOCC1 [Foretinib] (partner 0.25 µM); experiment: relative viability (nuclei count vs DMSO), 5 days (fraction); higher = more cells survive; conditions: first compound 1 µM
In short: (§1)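 Lung cancer cell lines were pin-tool dosed in 1536-well plates on the day after seeding, with either a lone drug or a fixed anchor-drug dose plus five library-drug doses (not always all listed) in √10 steps. Nuclei were counted on 4× images after 5 days. Relative viability is the ratio of treated-well to vehicle-well nuclei counts, with each value a median of duplicate plates.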

First: IA-LM
Second: LOU-NH91
The relative viability of the first is higher: 1.34 for the first, 0.889 for the second.

Going from A549 to HCC-78, the relative viability falls from 0.95 to 0.585.

Compared with NCI-H2009, NCI-H661 is lower in relative viability: 1.22 for the first, 1.02 for the second.

First: SK-LU-1
Second: NCI-H1299
The relative viability of the first is lower: 0.732 for the first, 1.12 for the second.

Compared with NCI-H2228, NCI-H2023 is lower in relative viability: 0.939 for the first, 0.89 for the second.

NCI-H1563 was tested, and the relative viability was 0.986.

same assay, conditions: first compound 3.162 µM

Compared with NCI-H2342, NCI-H1623 is lower in relative viability: 0.978 for the first, 0.722 for the second.

Going from NCI-H727 to NCI-H1650, the relative viability rises from 1.15 to 1.18.

Compared with EBC-1, NCI-H1703 is higher in relative viability: 0.0991 for the first, 0.346 for the second.

Going from NCI-H1993 to SW 1573, the relative viability falls from 0.744 to 0.605.

Going from NCI-H838 to LCLC-103H, the relative viability falls from 1.04 to 0.815.

First: NCI-H520
Second: NCI-H2126
The relative viability of the first is lower: 0.655 for the first, 1.14 for the second.

First: EMC-BAC-2
Second: NCI-H2085
The relative viability of the first is higher: 0.581 for the first, 0.513 for the second.

First: Calu-6
Second: HCC-366
The relative viability of the first is lower: 0.54 for the first, 0.895 for the second.

First: NCI-H1666
Second: NCI-H596
The relative viability of the first is lower: 0.814 for the first, 0.89 for the second.

Compared with LK-2, NCI-H2087 is higher in relative viability: 0.819 for the first, 0.968 for the second.

Compared with SK-MES-1, H3255 is higher in relative viability: 0.985 for the first, 1.05 for the second.

First: COR-L23
Second: COR-L 105
The relative viability of the first is lower: 0.457 for the first, 1 for the second.

First: IA-LM
Second: LOU-NH91
The relative viability of the first is higher: 1.37 for the first, 0.829 for the second.

Going from A549 to HCC-78, the relative viability rises from 0.563 to 0.614.

Compared with NCI-H2009, NCI-H661 is higher in relative viability: 0.872 for the first, 1.01 for the second.

First: SK-LU-1
Second: NCI-H1299
The relative viability of the first is lower: 0.346 for the first, 1.11 for the second.

Compared with NCI-H2228, NCI-H2023 is higher in relative viability: 0.543 for the first, 0.663 for the second.

In the case of NCI-H1563, the relative viability is reported as 0.935.

compound: C1CSC2=C(C(=O)N1)SC3=C2C=C(C=C3)O [kb NB 142-70] + Cc1cc(Nc2cc(N3CCN(C)CC3)nc(Sc3ccc(NC(=O)C4CC4)cc3)n2)n[nH]1 [Tozasertib] (partner 0.1 µM); experiment: as above; conditions: first compound 0.1 µM
In short: as §1

Compared with NCI-H2342, NCI-H1623 is lower in relative viability: 0.447 for the first, 0.441 for the second.

Going from NCI-H727 to NCI-H1650, the relative viability falls from 0.607 to 0.47.

First: NCI-H1993
Second: SW 1573
The relative viability of the first is higher: 0.604 for the first, 0.153 for the second.

First: NCI-H838
Second: LCLC-103H
The relative viability of the first is lower: 0.29 for the first, 0.472 for the second.

Going from NCI-H520 to NCI-H2126, the relative viability rises from 0.45 to 0.805.

Going from EMC-BAC-2 to NCI-H2085, the relative viability rises from 0.303 to 0.796.

First: HCC-366
Second: NCI-H1666
The relative viability of the first is lower: 0.122 for the first, 0.642 for the second.

Going from NCI-H596 to LK-2, the relative viability falls from 0.804 to 0.168.

Going from NCI-H2087 to NCI-H1648, the relative viability rises from 0.267 to 0.396.

Going from SK-MES-1 to H3255, the relative viability falls from 0.867 to 0.534.

First: COR-L23
Second: COR-L 105
The relative viability of the first is lower: 0.237 for the first, 0.319 for the second.

First: LOU-NH91
Second: HCC-44
The relative viability of the first is lower: 0.599 for the first, 0.728 for the second.

First: NCI-H522
Second: HCC-78
The relative viability of the first is higher: 0.521 for the first, 0.389 for the second.

Going from NCI-H2009 to NCI-H661, the relative viability falls from 0.75 to 0.337.
